Data set [1] deals with human monocytes and macrophages. The data set can be described thus: Cytotoxicity on human monocytes and macrophages (MTT). The data set is classed as cell-based. Particulars: concentration lower than 10 μg/ml. How it is done: Normal human peripheral blood was heparin-treated and diluted with equal amount of Hank's balanced salt solution (HBSS: Ca^2+ and Mg^2+ free). The diluted blood was put into a centrifuge tube containing therein Ficoll-Hypaque(Sigma, St. Louis, Mo., U.S.A.) layer having a density of 1.077 piled up on Ficoll-Hypaque layer having a density of 1.119, and then centrifuged at 700×g for 30 minutes to obtain monocytes from the layer between Ficoll-Hypaque layer having a density of 1.077 and serum layer, and neutrophils from the layer between Ficoll-Hypaque layer having a density of 1.077 and that having a density of 1.119. The separated cells were washed twice with 4° C. HBSS(Ca^2+ and Mg^2+ free) and suspended in RPMI 1640 medium(Gibco, Grand Island, N.Y., U.S.A.) containing 10% fetal bovine serum(FBS, Hyclone, Logan, Utah, U.S.A.). The suspensions were added to the wells of 24-well incubation plate(Costar, Cambridge, Mass., U.S.A.) and incubated at 37° C. for 2 hours to obtain monocytes, macrophages and neutrophils. […] The cytotoxicity of acanthoic acid was determined by the following procedures. […] 100 μl each of acidified isopropanol(0.04N HCl in isopropanol) was added to the cells in each well to elute formazan produced by the living cells, and optical density (O.D.) was determined at 540 nm by using an ELISA reader (Titertek multiskan Mcc/340)(FIG. 1). […]

In data set [2] the test system is collagen synthesis in rat pulmonary fibroblast. The data set can be described thus: Inhibition of collagen synthesis in rat pulmonary fibroblasts (indirect ELISA). The format is cell-based. Particulars: culture of rat pulmonary fibroblast pretreated with acanthoic acid, silica-stimulated; FIG. 7. How it is done: Fibroblasts were separated from rats by using a modification of the method of Phan, S. H., et al. described in J. Clin. Invest., 76, 241(1985), as follows. A rat was anesthetized with ether and its lungs were isolated on the aseptic worktable. The lungs were cut into small pieces in the size ranging from 2 to 4 mm and suspended in phosphate buffered saline(PBS) containing collagenase and 0.5% trypsin to digest the tissues at 37° C. for 2 hours. The suspension was filtered through sterilized gauze to remove undigested tissues, etc. The separated cells were washed with PBS twice or three times and suspended into RPMI 1640 medium(Gibco, Grand Island, N.Y., U.S.A.) containing 10% fetal bovine serum(FBS, Hyclone, Logan, Utah, U.S.A.). […] For the purpose of confirming the ability of acanthoic acid to suppress the action of IL-1 and TNF-α, its inhibitory effect on the collagen synthesis in rat pulmonary fibroblast and pulmonary tissues was determined. The amount of produced collagen in the culture of rat pulmonary fibroblast was measured by an indirect ELISA method, and that of pulmonary tissue was determined by measuring the concentration of hydroxyproline and calculating the amount of collagen therefrom by using the standard curve of internal control group. […]
Background: In an ELISA, binding on a coated surface is turned into a signal by an enzyme label.

Here are results for one compound from patent publication US5900434A, “Method for inhibiting the production of interleukin-1 or tumor necrosis factor-α by administering acanthoic acid” (Korea Institute of Science and Technology, priority 1994, dated 1999).

With `C=C[C@@]1(C)CC=C2C(CCC3[C@](C)(C(=O)O)CCC[C@@]23C)C1` (single isomer, unassigned; (-)) [acanthoic acid, (-)-pimara-9(11),15-diene-19-oic acid], the cytotoxicity result in data set [1] is reported as “no cytotoxicity”. Also, the “amount of synthesized collagen” value in data set [2] is listed as “decreases significantly”.
